Patent US20210110884A1 (priority 2019, published 2021)

B1: BChEG117: butyrylcholinesterase as printed without H; apparently the enzyme lacking the G117H mutation (protein, UniProt P06276 29-602, looked up)
Cholinesterase: EDDIIIATKNGKVRGMNLTVFGGTVTAFLGIPYAQPPLGRLRFKKPQSLTKWSDIWNATKYANSCCQNIDQSFPGFHGSEMWNPNTDLSEDCLYLNVWIPAPKPKNATVLIWIYGGGFQTGTSSLHVYDGKFLARVERVIVVSMNYRVGALGFLALPGNPEAPGNMGLFDQQLALQWVQKNIAAFGGNPKSVTLFGESAGAASVSLHLLSPGSHSLFTRAILQSGSFNAPWAVTSLYEARNRTLNLAKLTGCSRENETEIIKCLRNKDPQEILLNEAFVVPYGTPLSVNFGPTVDGDFLTDMPDILLELGQFKKTQILVGVNKDEGTAFLVYGAPGFSKDNNSIITRKEFQEGLKIFFPGVSEFGKESILFHYTDWVDDQRPENYREALGDVVGDYNFICPALEFTKKFSEWGNNAFFYYFEHRSSKLPWPEWMGVMHGYEIEFVFGLPLERRDNYTKAEEILSRSIVKRWANFAKYGNPNETQNNSTSWPVFKSTEQKYLTLNTESTRIMTKLRAQQCRFWTSFFPKVLEMTGNIDEAEWEWKAGFHRWNNYMMDWKNQFNDYTSKKESCVGL

Assays:
[1] = molecular target: T1, E. coli DHFR (Escherichia coli, UniProt P0ABQ4); type: biochemical
T1 sequence (P0ABQ4 1-159): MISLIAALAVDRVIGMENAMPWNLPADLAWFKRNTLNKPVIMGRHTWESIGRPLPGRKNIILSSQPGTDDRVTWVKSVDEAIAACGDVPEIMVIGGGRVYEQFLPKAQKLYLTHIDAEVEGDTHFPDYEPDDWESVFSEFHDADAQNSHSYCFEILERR

[2] = type: biochemical

Molecule | decrease of hydride transfer by E. coli DHFR [1] | pH independent rate for hydride transfer [1] | inhibition by selected OP concentrations [2]
CC(C)O [isopropanol] | 2.2 fold | 530±10 s^−1 | –
B1 | – | – | > 99%
